Active and inactive are the calls of the source. No rule for the calls is given here.
experiment: Cytotoxicity activity against human HepG2 cells assessed by CellTiter-Glo luminescent cell viability assay.; assay type: toxicity, cell-based; set-up: assay stage confirmatory assay, source tissue liver; conditions: HepG2 cells, read-out: IC50 relative

| SMILES | CC50 |
| --- | --- |
| CCC(=O)Nc1ccc(C(=O)Cn2ncc(Cl)c(Cl)c2=O)cc1 | 3.3 µM (active) |
| COc1ccccc1N1CCN(S(=O)(=O)c2ccc3c4c(cccc24)C(=O)N3)CC1 | 10.8 µM (inactive) |
| CN(C)S(=O)(=O)c1cccc(NC(=O)CSc2cccc3cccnc23)c1 | 3.5 µM (active) |
| CNc1nc(N2CCN(C)CC2)nc2ccccc12 | 5.5 µM (active) |
| Cn1c(=O)oc2cc(S(=O)(=O)Nc3cccc4cccnc34)ccc21 | 16.7 µM (active) |
| CC(C)(C)c1n[nH]c2c(-c3nc4ccccc4s3)c(N)nn2c1=O | 35.4 µM (inactive) |
| O=C(Cc1ccsc1)Nc1nc(-c2ccccn2)cs1 | 3.2 µM (active) |
| CCOCCCNC(=O)c1nnn(-c2ccc3ncccc3c2)c1C | 3.1 µM (active) |
| Cc1cn(CC(=O)c2ccc(NC(=O)CC(C)C)cc2)cc(Br)c1=O | 22.2 µM (inactive) |
| c1ccc([C@H](CC2CCC2)NC2CCC3(CC2)OCCO3)cc1 | 4 µM (active) |
| Cc1ccc(Cc2cnc(NC(=O)NC[C@H](C)CN3CCN(C)CC3)s2)cc1 | 7.6 µM (active) |
| COc1ccc(-n2ccc(C(=O)Nc3cnccc3C(N)=O)n2)cc1 | 5.4 µM (active) |
| O=C(Nc1ccccn1)c1cccc(NS(=O)(=O)c2c[nH]c3ncccc23)c1 | 8.6 µM (active) |
| Cc1cc(C)c(C(N)=O)c(SCC(=O)N(CCC#N)c2ccc3c(c2)OCCO3)n1 | 4.3 µM (active) |
| COc1ccc(OC)c(C2CC(c3c(O)[nH]c(=O)n(C4CCCCC4)c3=O)=NN2)c1 (centres undefined) | 5.7 µM (active) |
| N[C@@H](CNC(=O)COc1ccc(Cl)c2ccccc12)C1CC1 | 24.9 µM (inactive) |
| C[C@@H]1Oc2ccccc2N(CC(=O)Nc2nc(-c3ccccn3)cs2)C1=O | 3.3 µM (active) |
| N#Cc1ccc(CN2CCN(C(=O)c3ccc(-n4cccn4)cc3)CC2)cc1 | 8.6 µM (active) |
| O=S1(=O)CCCN1c1ccc(CNc2ncnc3ccccc23)cc1F | 2.2 µM (active) |
| Cc1cc(NC(=O)c2cscn2)ccc1NC(=O)c1ccco1 | 9.1 µM (active) |
| COc1ccc(OCCCN2CCN(S(=O)(=O)c3ccc(S(N)(=O)=O)cc3)CC2)cc1 | 15.9 µM (inactive) |
| O[C@@H](CNCc1cc2ccccc2nc1N1CCCCC1)CN1CCCC1 | 9.8 µM (active) |
| C[C@H](O)CN1CCC(CNCc2ccc(Br)cc2)CC1 | 5.3 µM (active) |
| c1ccc2c(c1)sc1ncnc(NC[C@H]3CN(C4CC4)CCO3)c12 | 11.8 µM (active) |
| CCN(Cc1nc2cc(OC)c(OC)cc2c(=O)[nH]1)C(=O)c1ccc2c(c1)OCO2 | 12.7 µM (active) |
| CCCCn1nnnc1Cn1ncc(Cl)c(Cl)c1=O | 3 µM (active) |

| SMILES | CC50 |
| --- | --- |
| COc1ccc(-c2nnc(Cn3ncc(Cl)c(Cl)c3=O)o2)cc1 | 0.9 µM (active) |
| COCCN1CCCC(CNC2CCN(c3ccccc3Cl)CC2)C1 (centres undefined) | 5.2 µM (active) |
| NC(=O)c1cc(NC(=O)CCSc2ccccc2Br)[nH]n1 | 13.6 µM (active) |
| O=C(Cc1ccc(-n2cccn2)cc1)Nc1nccs1 | 0.6 µM (active) |
| O=C(Nc1nc(-c2ccccc2)cs1)C1CCN(S(=O)(=O)c2cccnc2)CC1 | 6 µM (active) |
| COc1ccccc1OCC(=O)Nc1cccc2ncccc12 | 9.3 µM (active) |
| CCOc1ncccc1C(=O)Nc1nc2cc(C#N)ccc2n1CC | 5.9 µM (active) |
| COc1cc(F)cc2sc(NC(=O)c3cc(N4CCOCC4)ccn3)nc12 | 48.8 µM (inactive) |
| CCN(c1ccc(C(=O)Nc2ccccc2O)cc1)C(C)C | 11.9 µM (active) |
| COc1c(C)ncnc1NCc1cccc(C(F)(F)F)c1 | 2.9 µM (active) |
| COc1ccc(OC[C@@H](O)CN(C)Cc2ccc(C)o2)c(C(C)(C)C)c1 | 21.3 µM (inactive) |
| Cc1ccc(NC(=O)Nc2ccc(Cl)cc2)cc1NS(C)(=O)=O | 3.6 µM (active) |
| Nc1ccnc2ccc(Oc3ccccc3)cc12 | 11.2 µM (active) |
| CC(C)n1ncc2cc(NC(=O)c3ccc(=O)n(Cc4ccccc4)n3)cnc21 | 9.2 µM (active) |
| CCc1nccn1[C@H]1CCCN(CCOc2ccccc2F)C1 | 9.3 µM (active) |
| O=C(Nc1nccs1)c1cccc(S(=O)(=O)N2CCN(c3ccc(F)cc3)CC2)c1 | 3.1 µM (active) |
| CCCn1c(NC(=O)c2cccc(S(=O)(=O)N3CCN(C(C)=O)CC3)c2)nc2ccccc21 | 8.3 µM (active) |
| CC(C)[C@H](NC1CCN(C(=O)c2ccco2)CC1)c1ccccc1 | 10.6 µM (inactive) |
| Fc1ccc2[nH]c(CCNc3ncc(Br)cn3)nc2c1 | 5.1 µM (active) |
| O=C1c2ccccc2C(=O)N1Cn1ncc(Cl)c(Cl)c1=O | 11.5 µM (active) |
| CN(C)S(=O)(=O)N1CCN(C(=O)c2cnn(-c3ccc(Cl)cc3)c2C(F)(F)F)CC1 | 5.2 µM (active) |
| CCCCNc1nc(-c2cc(C)ccn2)cs1 | 6.3 µM (active) |
| Cc1ccc([C@H](CC(=O)c2ccco2)SCCO)cc1 | 11.4 µM (active) |
| CC(C)Cn1ncc2cc(C(=O)Nc3nc4ccccc4[nH]3)cnc21 | 15.5 µM (inactive) |
| N#Cc1ccc(NC(=O)c2cccc3ncccc23)cc1 | 10.8 µM (inactive) |
| CNc1ccc(Br)cc1N | 4.1 µM (active) |

| SMILES | CC50 |
| --- | --- |
| Cc1cc(C)cc(OCCN(C)[C@@H](C)c2nc(N)nc(N(C)C)n2)c1 | 9 µM (active) |
| CN(C)c1cccc(S(=O)(=O)Nc2ccc3ncccc3c2)c1 | 3.3 µM (active) |
| COc1ccc(-c2csc3[nH]c(=O)cc(O)c23)cc1 | 3.7 µM (active) |
| Nc1ccncc1CCC1CCCCC1 | 10.7 µM (active) |
| O=S(=O)(c1cccs1)N1CCN(C[C@H](O)COc2cc(Cl)ccc2Cl)CC1 | 8.9 µM (active) |
| COc1ccc2[nH]c(NC(=O)[C@@H]3CCCC(=O)N3)cc2c1 | 4.6 µM (active) |
| Cn1c(=O)c2c(ncn2CCn2ncc(Cl)c(Cl)c2=O)n(C)c1=O | 11.7 µM (active) |
| O=C(Nc1ccc(-c2cn3ccsc3n2)cc1)c1cccc(CO)c1 | 6.3 µM (active) |
| Cc1nccn1-c1ccc(NC(=O)c2cccc(OC(C)C)n2)cn1 | 6.5 µM (active) |
| Cc1csc2nc(CN[C@H](c3ccc(Cl)cc3)C3CC3)cc(=O)n12 | 2.6 µM (active) |
| Cc1nc(-c2ccccc2)oc1C(=O)Nc1ccc(N2CCN(C)CC2)cn1 | 12.9 µM (active) |
| Cc1ccc(NC(=O)Cc2ccc(-n3cccn3)cc2)nc1 | 0.4 µM (active) |
| Cc1cc(C)n(C(=O)Cc2cccs2)n1 | 16 µM (inactive) |
| Nc1ccc2cc3ccc(N)cc3nc2c1 | 3.2 µM (active) |
| Cc1cccn2c(CC(=O)N3CCOc4ccc(Cl)cc4C3)cnc12 | 4.9 µM (active) |
| CCn1cc(CC(=O)Nc2ccc(Oc3ccccc3)cn2)cn1 | 5.3 µM (active) |
| c1ccc(-n2cnc3c(Nc4cnn(C[C@H]5CCCO5)c4)ncnc32)cc1 | 5.8 µM (active) |
| CCOc1cc2ccccc2cc1C(=O)NCc1ccco1 | 1.7 µM (active) |
| COc1ccc2cc(C(=O)Nc3ccc4oc(=O)[nH]c4c3)[nH]c2c1 | 32.5 µM (inactive) |
| C[C@@H]1NC(C(=O)Nc2ccnc3ccnn23)=NN(c2ccccc2)C1=O | 13.2 µM (active) |
| CCCN1CCC(NC(=O)c2nn(-c3cccc(Cl)c3)nc2C)CC1 | 16.3 µM (inactive) |
| Cc1nn(-c2ccccc2)nc1C(=O)Nc1ccc(S(=O)(=O)NCCCN2CCOCC2)cc1 | 10.3 µM (active) |
| CNC(=O)c1cc(Oc2ccccc2N)ccn1 | 32.7 µM (inactive) |
| O=S(=O)(c1ccc(N2CCN(c3ncnc4c3oc3ccccc34)CC2)nc1)N1CCOCC1 | 3.3 µM (active) |
| Cc1nn(-c2cccc(Cl)c2)nc1C(=O)N(C)C1CCNCC1 | 11.4 µM (active) |
| CCn1nc(C)cc1C(=O)Nc1nc2cc(C#N)ccc2n1CC | 4 µM (active) |

| SMILES | CC50 |
| --- | --- |
| CCOc1ccc(OCCN2CCC[C@H](n3ccnc3CC)C2)cc1 | 8.4 µM (active) |
| CC(C)(C)NS(=O)(=O)c1ccc(C(=O)Nc2ccc(Oc3cccnc3)nc2)o1 | 11.8 µM (inactive) |
| O=S(=O)(Nc1ccc(Cl)c2cccnc12)c1c[nH]c2ncccc12 | 5.5 µM (inactive) |
| Oc1ccc(CN2CCc3ccccc3C2)cc1 | 3.4 µM (active) |
| CS(=O)(=O)c1ncc(Cl)c(C(=O)Nc2ccc(Cl)cc2)n1 | 4.1 µM (active) |
| Cc1ccc(NC(=O)c2cccc(F)c2Cl)cc1O | 0.7 µM (active) |
| O=C(NCC(F)(F)CO)c1ccc2noc(-c3ccccc3)c2c1 | 7.2 µM (active) |
| CC1=NNc2nc3c(c(=O)n(Cc4ccccc4Cl)c(=O)n3C)n2[C@H]1C | 21.1 µM (inactive) |
| N#Cc1ccc(CN2CCN(C(=O)c3ccc(Cn4cccn4)cc3)CC2)cc1 | 3.9 µM (active) |
| CCc1nc(C)c([C@H](C)N(C)Cc2cccnc2N)s1 | 13.8 µM (active) |
| CCn1c(NC(=O)c2ccc(=O)n(CCOc3ccccc3)n2)nc2ccccc21 | 4.6 µM (active) |
| CC(C)(C)n1ncc(N2CCN(c3ccc(C#N)cc3F)CC2)c(Cl)c1=O | 22.7 µM (active) |
| Clc1ccc(C2=CCNCC2)cc1Cl | 10.8 µM (active) |
| COc1cc(-c2nc(-c3cccs3)no2)cc(OC)c1O | 0.4 µM (active) |
| O=C(Nc1ccnn1-c1ccc(Br)cn1)c1ccccn1 | 23.7 µM (inactive) |
| C[C@H]1CN(CC(=O)Nc2nc3ccc(F)cc3s2)CCN1c1nccn2cnnc12 | 8 µM (active) |
| Cc1cc(NC(=O)CN2CCCC[C@@H]2C)n(C)n1 | 50 µM (inactive) |
| CC(C)CN(CCS(=O)(=O)c1ccc(C(C)(C)C)cc1)C1CCN(C)CC1 | 4.4 µM (active) |
| Cc1nonc1Cn1nc(Cl)c(Cl)cc1=O | 21.6 µM (inactive) |
| Cn1nc(C(=O)Nc2ccc(Oc3ccc(F)cc3)cn2)ccc1=O | 6.7 µM (active) |
| c1ccc2c(c1)OC[C@H](CNc1ncnc3sccc13)O2 | 1.8 µM (active) |
| Cc1c(CNCCCN2CCCCC2CO)oc2ccccc12 (centres undefined) | 9.8 µM (active) |
| CCN(CC)C(=O)CN1CCN(S(=O)(=O)c2ccc3c(c2)CCC3)CC1 | 50 µM (inactive) |
| CN(c1ccc(-c2csc(NC(=O)CCc3ccco3)n2)cc1)S(C)(=O)=O | 6 µM (active) |
| COc1ccsc1C(=O)Nc1ncc(Cl)s1 | 2.3 µM (active) |
| Cc1cc(-c2csc(NC(=O)c3coc(S(=O)(=O)N(C)C)c3)n2)c(C)o1 | 16.5 µM (inactive) |
